Assay results reported in ChEMBL document CHEMBL1649076, “Discovery of 5-chloro-N2-[(1S)-1-(5-fluoropyrimidin-2-yl)ethyl]-N4-(5-methyl-1H-pyrazol-3-yl)pyrimidine-2,4-diamine (AZD1480) as a novel inhibitor of the Jak/Stat pathway” (J Med Chem, 2011).

What was measured:
Liver microsomes = assay: Intrinsic clearance in rat liver microsomes assessed per mg of protein at 2 uM by LCMS/MS analysis; format: ADME, Microsome
[1] = target: T1, Tyrosine-protein kinase JAK3 (Homo sapiens, UniProt P52333); assay: Inhibition of JAK3 using 5 mM of ATP
T1 sequence (P52333 whole entry): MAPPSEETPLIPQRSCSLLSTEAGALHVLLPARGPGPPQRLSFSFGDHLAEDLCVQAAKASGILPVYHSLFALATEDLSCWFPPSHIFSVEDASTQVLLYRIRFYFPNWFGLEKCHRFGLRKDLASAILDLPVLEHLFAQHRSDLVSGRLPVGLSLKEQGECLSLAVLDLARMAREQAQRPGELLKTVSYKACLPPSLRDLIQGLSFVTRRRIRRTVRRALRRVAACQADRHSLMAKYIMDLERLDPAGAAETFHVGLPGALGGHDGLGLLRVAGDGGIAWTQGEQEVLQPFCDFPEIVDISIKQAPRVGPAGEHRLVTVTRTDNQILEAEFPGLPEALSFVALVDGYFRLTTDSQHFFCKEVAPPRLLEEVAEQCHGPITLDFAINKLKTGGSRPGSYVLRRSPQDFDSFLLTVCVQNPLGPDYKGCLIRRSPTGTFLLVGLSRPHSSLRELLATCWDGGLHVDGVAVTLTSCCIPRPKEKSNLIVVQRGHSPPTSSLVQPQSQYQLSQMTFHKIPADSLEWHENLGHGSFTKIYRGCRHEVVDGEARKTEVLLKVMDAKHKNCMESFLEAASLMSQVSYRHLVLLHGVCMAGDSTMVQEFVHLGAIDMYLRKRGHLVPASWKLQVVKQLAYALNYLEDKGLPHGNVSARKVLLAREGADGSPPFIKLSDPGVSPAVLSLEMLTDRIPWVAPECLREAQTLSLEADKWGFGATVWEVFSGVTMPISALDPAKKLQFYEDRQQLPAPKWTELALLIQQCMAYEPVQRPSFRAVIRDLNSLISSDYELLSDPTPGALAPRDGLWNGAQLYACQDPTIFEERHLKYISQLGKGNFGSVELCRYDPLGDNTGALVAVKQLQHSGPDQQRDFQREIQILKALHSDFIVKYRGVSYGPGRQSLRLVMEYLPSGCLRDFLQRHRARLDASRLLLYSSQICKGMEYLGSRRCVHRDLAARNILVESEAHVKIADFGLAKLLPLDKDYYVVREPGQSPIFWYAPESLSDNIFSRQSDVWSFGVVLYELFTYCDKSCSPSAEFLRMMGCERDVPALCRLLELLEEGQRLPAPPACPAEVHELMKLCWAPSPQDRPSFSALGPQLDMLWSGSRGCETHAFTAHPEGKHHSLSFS

[2] = Octanol-water partition coefficient, log D of the compound at pH 7.4 by shake flask method; format: physicochemical
[3] = Aqueous equilibrium solubility of the compound at pH 7.4 by HPLC-UV analysis; format: physicochemical
[4] = Oral bioavailability in Han Wistar rat at 10 mg/kg; format: ADME, organism-based; conditions: in vivo
[5] = Observed clearance in Han Wistar rat at 10 mg/kg, po and 3 mg/kg, iv; format: ADME, organism-based; conditions: in vivo
[6] = Volume of distribution at steady state in Han Wistar rat at 10 mg/kg, po and 3 mg/kg, iv; format: ADME, organism-based; conditions: in vivo, read-out: Vdss
[7] = Half life in Han Wistar rat at 10 mg/kg, po and 3 mg/kg, iv; format: ADME, organism-based; conditions: in vivo
[8] = Growth inhibition of mouse BA/F3 cells expressing Tel-JAK2 kinase after 48 hrs by MTS assay; format: functional; conditions: BaF3, 48 h
[9] = target: T2, Tyrosine-protein kinase JAK2 (Homo sapiens, UniProt O60674); assay: Inhibition of JAK2 using Km ATP concentration
T2 sequence (O60674 whole entry): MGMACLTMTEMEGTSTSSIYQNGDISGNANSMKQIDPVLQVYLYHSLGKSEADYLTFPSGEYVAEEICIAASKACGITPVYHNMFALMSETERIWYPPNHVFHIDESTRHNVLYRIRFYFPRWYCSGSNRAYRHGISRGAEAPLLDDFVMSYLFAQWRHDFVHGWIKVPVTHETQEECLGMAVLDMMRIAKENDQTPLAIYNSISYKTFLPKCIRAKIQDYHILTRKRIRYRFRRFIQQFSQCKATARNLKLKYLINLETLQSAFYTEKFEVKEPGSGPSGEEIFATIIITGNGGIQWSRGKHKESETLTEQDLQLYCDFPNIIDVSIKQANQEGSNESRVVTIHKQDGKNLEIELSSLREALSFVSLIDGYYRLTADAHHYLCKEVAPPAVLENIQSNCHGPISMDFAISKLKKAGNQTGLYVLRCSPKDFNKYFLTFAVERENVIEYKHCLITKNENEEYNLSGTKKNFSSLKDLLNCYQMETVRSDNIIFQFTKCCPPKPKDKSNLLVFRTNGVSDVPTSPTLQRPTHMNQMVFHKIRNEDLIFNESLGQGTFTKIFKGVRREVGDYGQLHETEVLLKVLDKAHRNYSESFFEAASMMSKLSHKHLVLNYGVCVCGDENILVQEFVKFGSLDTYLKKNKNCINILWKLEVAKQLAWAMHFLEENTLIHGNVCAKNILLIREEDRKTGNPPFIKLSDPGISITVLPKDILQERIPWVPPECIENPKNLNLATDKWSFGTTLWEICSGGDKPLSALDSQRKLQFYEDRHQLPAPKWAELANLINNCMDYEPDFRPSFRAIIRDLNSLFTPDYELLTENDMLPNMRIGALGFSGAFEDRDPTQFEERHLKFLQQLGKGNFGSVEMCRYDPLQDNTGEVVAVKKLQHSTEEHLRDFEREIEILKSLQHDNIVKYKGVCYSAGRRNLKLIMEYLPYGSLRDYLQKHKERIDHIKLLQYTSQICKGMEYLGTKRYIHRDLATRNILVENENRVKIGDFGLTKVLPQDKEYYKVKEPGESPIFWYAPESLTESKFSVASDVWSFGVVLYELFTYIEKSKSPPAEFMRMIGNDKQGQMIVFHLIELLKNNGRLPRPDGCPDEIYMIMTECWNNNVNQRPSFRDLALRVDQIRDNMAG

[10] = target: T2, Tyrosine-protein kinase JAK2; assay: Inhibition of JAK2 using 5 mM of ATP
[11] = Inhibition of Stat5 phosphorylation in mouse Ba/F3 cells expressing EPOR; conditions: BaF3
[12] = AUC (0 to 24 hrs) in Han Wistar rat at 10 mg/kg, po; format: ADME, organism-based; design: time < 24 hr, dose 10 mg/kg, route oral; conditions: plasma

Compound | clearance (Liver microsomes) [µL/min/mg] | IC50 [1] [nM] | logD [2] | solubility thermodynamic [3] [µM] | bioavailability [4] [%] | clearance [5] [mL/min/kg] | Vd [6] [L/kg] | half-life [7] [h] | GI50 [8] [nM] | IC50 [9] [nM] | IC50 [10] [nM] | EC50 [11] [nM] | AUC(0-t) at 24 h [12] [µM·h]
Cc1cc(Nc2nc(N[C@@H](C)c3ncc(F)cn3)ncc2F)n[nH]1 | 10 | 5250 | < 2.6 | > 460 | 100 | 12 | 0.8 | 0.85 | 230 | – | – | – | –
C[C@H](Nc1ncc(F)c(Nc2cc(C3CC3)[nH]n2)n1)c1ncc(F)cn1 | – | – | < 2.6 | > 460 | – | – | – | – | 250 | 3 | – | – | –
COc1cc(Nc2nc(N[C@@H](C)c3ncc(F)cn3)ncc2Cl)n[nH]1 | – | > 30000 | < 2.6 | > 460 | – | – | – | – | 410 | 3 | 108 | – | –
C[C@H](Nc1ncc(Cl)c(Nc2cc(C3CC3)[nH]n2)n1)c1ncc(F)cn1 | – | – | < 2.6 | > 460 | – | – | – | – | 150 | < 3 | – | – | –
Cc1cc(Nc2nc(N[C@@H](C)c3ncc(F)cn3)ncc2C)n[nH]1 | 25 | 8350 | < 2.6 | > 460 | 100 | 18 | 2.4 | 1.9 | 96 | < 3 | 4 | – | –
Cc1cc(Nc2nc(O[C@@H](C)c3ncc(F)cn3)ncc2Cl)n[nH]1 | – | 12700 | < 2.6 | > 460 | – | – | – | – | 170 | – | – | 39000 | –
Cc1cc(Nc2nc(O[C@H](C)c3ncc(F)cn3)ncc2Cl)n[nH]1 | – | > 30000 | < 2.6 | > 460 | – | – | – | – | > 10000 | – | – | – | –
COc1cc(Nc2nc(N[C@@H](C)c3ncc(F)cn3)ncc2Br)n[nH]1 | – | > 30000 | < 2.6 | > 460 | – | – | – | – | 590 | 4 | 108 | – | –
Cc1cc(Nc2nc(N[C@@H](C)c3ncc(F)cn3)ncc2Br)n[nH]1 | – | 4590 | < 2.6 | > 460 | – | – | – | – | 89 | < 3 | 10 | – | –
C[C@H](Nc1ncc(Cl)c(Nc2cc(N(C)C)[nH]n2)n1)c1ncc(F)cn1 | – | > 30000 | < 2.6 | > 460 | – | – | – | – | 1200 | 9 | 488 | – | –
C[C@H](Nc1ncc(F)c(Nc2cc(N(C)C)[nH]n2)n1)c1ncc(F)cn1 | – | > 30000 | < 2.6 | > 460 | – | – | – | – | 2200 | 16 | 815 | – | –
Cc1cc(Nc2cc(N3CCOCC3)nc(N[C@@H](C)c3ncc(F)cn3)n2)[nH]n1 | 10 | 30 | < 2.6 | > 460 | 64 | 18 | 1.4 | 1.1 | 50 | < 3 | < 3 | – | –
Cc1cc(Nc2nc(N[C@@H](C)c3ncc(F)cn3)nc(N3CCOCC3)c2F)n[nH]1 | – | > 30000 | < 2.6 | > 460 | 34 | 14 | 1.7 | 1.9 | 13 | < 3 | < 3 | – | –
Cc1cc(Nc2nc(N[C@@H](C)c3ncc(F)cn3)nc(N3CCOCC3)c2Cl)n[nH]1 | 16 | 11800 | < 2.6 | > 460 | 20 | 221 | 4.6 | 0.36 | 17 | < 3 | 9 | – | –
COc1cc(Nc2cc(N3CCOCC3)nc(N[C@@H](C)c3ncc(F)cn3)n2)n[nH]1 | – | 200 | < 2.6 | > 460 | – | – | – | – | 73 | 10 | 30 | – | –
COc1cc(Nc2nc(N[C@@H](C)c3ncc(F)cn3)nc(N3CCOCC3)c2F)n[nH]1 | – | 30500 | < 2.6 | > 460 | – | – | – | – | 240 | 4 | 8 | – | –
COc1cc(Nc2nc(N[C@@H](C)c3ncc(F)cn3)nc(N3CCOCC3)c2Cl)n[nH]1 | – | 2960 | < 2.6 | > 460 | – | – | – | – | 1300 | 4 | 90 | – | –
Cc1cc(Nc2nc(N[C@H](C)c3ncc(F)cn3)ncc2Cl)n[nH]1 | – | – | < 2.6 | > 460 | – | 19 | 3 | 2.9 | 11000 | – | – | – | 33.5
